Patent publication USRE35801E, “Prophylactic and therapeutic composition for circulatory disorders and method of treatment” (priority 1985, dated 1998)
Entries after “also recorded” stand apart in the source; their conditions may differ. Where a name gives a salt, the structure may show the parent alone.

What was measured:
[1] = test system: lipid peroxidation (brain homogenate); experiment: Inhibitory action of lipid peroxidation in brain homogenate (TBA value); assay type: biochemical; settings: rat brain homogenate, 37° C., 30 minutes; for IC50: inhibition of lipid peroxidation
Description: (1) Inhibitory action of lipid peroxidation (a) Preparation of brain homogenate By use of Wister-strain male rat, brain homogenate was prepared following the procedure as described below. […] Next, a brain perfusion was conducted through the tube with ice-cooled 50 mM phosphate-buffered physiological saline (pH 7.4) hereinafter referred to as "PBS"), and the whole brain was extirpated. After removal of cerebellum, the wet weight of cerebrum was measured and, with addition of 9-fold amount of PBS, it was broken by a Teflon homogenizer in ice-water to be homogenized. After the brain homogenate was subjected to centrifugation at 4° C. at 2200 rpm for 10 minutes, 0.3 ml of the supernatant was apportioned into a light-shielding test tube equipped with a ground stopper, to provide a brain homogenate for evaluation of medicine. (b) Evaluation of test medicine To the brain homogenate produced in (a), 0.6 ml of PBS and 10 μl of ethanolic solution of a test medicine were added (to a final concentration of 500 μM or a concentration at a common ratio of 3 between 0.3 and 100 μm), and the mixture was heated in a warm bath at 37° C. for 30 minutes. […] Also, the same operation was performed by addition of 10 μl of ethanol (blank) in place of 10 μl ethanolic solution of the test medicine for measurement of blank. […] After shaking for about 30 seconds, the mixture was subjected to centrifugation at 3000 rpm for 10 minutes, and the supernatant was provided as a sample for measurement of peroxidized lipid.

[2] = test system: drowsy pattern of electroencephalogram induced by phenobarbital or pentobarbital sodium salt; experiment: Antagonistic action against drowsy pattern of electroencephalogram induced by phenobarbital or pentobarbital sodium salt; assay type: in vivo, Wistar-strain male rat; settings: for minimal effective dose: Rattus norvegicus, intravenous, sodium salt, drowsy EEG after PHB 30 mg/kg or PBT 5 mg/kg, read-out: Antagonistic action at dose or higher
Description: (2) Antagonistic action against drowsy pattern of so electroencephalogram induced by phenobarbital or pentobarbital sodium salt
A Wistar-strain male rat weighing about 400 g was intramasculary administered with 0.6 mg of d-tubocurarine to be immobilized and, while maintaining the rectal temperature at 37° to 38° C. under artificial respiration, the electroencephalogram of the left cerebral frontal cortex was measured and recorded. Also, within the left femoral artery and vein, cannulas for measurement of artery pressure and for administration of medicine were placed, respectively.
As the active ingredient of the present invention, sodium salt of the compound represented by Formula (I) was used and the respective doses of said active ingredient and 30 mg/kg of phenobarbital sodium salt (produced by Iwaki Seiyaku K.K.) (hereinafter called "PHB") or 5 mg/kg of pentobarbital sodium salt (hereinafter called PBT) were each dissolved in physiological saline and administered intravenously in a liquid amount of 1 ml/kg.
The action of the active ingredient of the present invention affecting the cortex electroencephalogram after PHB or PBT administration was investigated as follows; Namely, at the time of 5 minutes or later after PHB or PBT administration when increase of the slow-wave component can be clearly recognized on electroencephalogram, 1, 3, 10, 30 and 100 mg/kg of the active ingredient were administered. To the control group 1 ml/kg of physiological saline was intravenously administered.
Recording and analysis of electroencephalogram were continuously drawn together with artery pressure, heart rate and rectal temperature on the recorder through a multi-purpose monitoring recording device (model RM-85, produced by Nippon Koden K.K.). At the same time, electroencephalogram was recorded in data recorder (model A-65, produced by Sony K.K.), and compressed spectral array analysis was conducted by means of a computer for medical data processing (ATAC-450, produced by Nippon Koden K.K.).

[3] = test system: cerebral ischemia recirculation model; experiment: Protective action in cerebral ischemia recirculation model; assay type: in vivo, Wistar-strain male rat; design: key to Presence of electroencephalogram restoration / Judgement of action: The case when restoration of electroencephalogram is judged as +; case when not recognized as -; settings: 10 mg/kg into duodenum; 10 min cerebral ischemia (Table 3)
Description: (3) Protective action in cerebral ischemia recirculation model
A Wistar-strain male rat weighing about 400 g was administered intramascularly with 0.6 mg of di-tubocurarine to be immobilized and, after a trachea cannulation, the head portion was fixed under artificial respiration on a stereotaxic device. The head skin was cut open, cranial bone was bored, and then bipolar electrode for lead-out of electroencephalogram were placed on the surface of the subdural left frontal cerebral cortex. After the electrode was fixed with the cranial bone by use of dental cement, the animal was held on its back. Next, a cannula for measurement of systemic pressure was placed within the left femoral artery, and a cannula for additional administration of d-tubocurarine within the left femoral vein, respectively. The heart rate was measured and recorded by driving a heart rate meter with the artery wave.
After blood pressure, heart rate and various parameters of electroencephalogram were stabilized, 10 mg/kg of the active ingredient of the present invention prepared in a suspension so as to give 1 ml/kg in 1% tragacanth gum solution was administered directly into duodenum […]. To the control group, only the 1% tragacanth gum solution of the same volume was administered similarly.
Ten to twenty minutes after administration of the medicine, while monitoring the electroencephalogram, blood pressure and heart rate on a multi-purpose monitoring recording device (RM-85 model, produced by Nippon Koden K.K.), the following operations were performed according to the methods shown below for cerebral ischemia loading.
First, ribs were set free at the left costicartilage end to open the chest. Next, cerebral blood flow was blocked for ten minutes by obstructing the left common carotid artery and the left subclavian artery exposed at the aorta originating portion at the same time, and then the brachiocephalic trunk by use of artery clips 30 minutes after administration of the medicine.
Recirculation of cerebral blood flow was effected by releasing at the same time the two artery clips mounted on the respective sites as mentioned above.
The protective action of the medicine for the disorder after recirculation of cerebral ischemia was examined by the presence of restoration of electroencephalogram, and survival time of animal after the recirculation.
During the experiment, the rectal temperature of the animal was maintained at 37° to 38° C. by use of a warming mat. Also, the rectal temperature was continuously drawn on the recorder together with electroencephalogram, femoral artery pressure and heart rate.

[4] = test system: lipid peroxidation by active oxygen; settings: cited from earlier work

| Compound | IC50 [1] | other results |
| --- | --- | --- |
| CC1=NN(c2ccccc2C)C(=O)C1 [Compound 2] | 392 µM |  |
| CC1=NN(c2cccc(C)c2)C(=O)C1 [Compound 3] | 8 µM |  |
| CC1=NN(c2ccc(C)cc2)C(=O)C1 [Compound 4] | 6.3 µM | minimal effective dose [2]: ≥ 10 mg/kg; Presence of electroencephalogram restoration [3]: + |
| CC1=NN(c2ccc(C)c(C)c2)C(=O)C1 [Compound 5] | 6 µM |  |
| CCCCc1ccc(N2N=C(C)CC2=O)cc1 [Compound 7] | 2.2 µM |  |
| CC1=NN(c2cccc(C(F)(F)F)c2)C(=O)C1 [Compound 8] | 3.9 µM |  |
| COc1ccccc1N1N=C(C)CC1=O [Compound 9] | 2130 µM |  |
| COc1cccc(N2N=C(C)CC2=O)c1 [Compound 10] | 7.1 µM |  |
| COc1ccc(N2N=C(C)CC2=O)cc1 [Compound 11] | 20.7 µM | minimal effective dose [2]: ≥ 10 mg/kg; Presence of electroencephalogram restoration [3]: + |
| COc1ccc(N2N=C(C)CC2=O)cc1OC [Compound 12] | 23 µM |  |
| CCOc1ccc(N2N=C(C)CC2=O)cc1 [Compound 13] | 10.3 µM | Presence of electroencephalogram restoration [3]: + |
| CC1=NN(c2ccccc2Cl)C(=O)C1 [Compound 14] | 97.8 µM |  |
| CC1=NN(c2cccc(Cl)c2)C(=O)C1 [Compound 15] | 3.4 µM |  |
| CC1=NN(c2ccc(Cl)cc2)C(=O)C1 [Compound 16] | 4 µM | Presence of electroencephalogram restoration [3]: + |
| CC1=NN(c2ccc(Cl)c(Cl)c2)C(=O)C1 [Compound 17] | 1.6 µM |  |
| CC1=NN(c2ccc(F)cc2)C(=O)C1 [Compound 18] | 12.1 µM |  |
| CC1=NN(c2ccc(C)c(Cl)c2)C(=O)C1 [Compound 19] | 4.1 µM |  |
| CSc1cccc(N2N=C(C)CC2=O)c1 [Compound 20] | 5.1 µM |  |
| CC1=NN(c2ccc(C(=O)O)cc2)C(=O)C1 [Compound 21] |  | Inhibitory percentage at 500 μM [1]: 34.0% |
| CCOC(=O)c1ccc(N2N=C(C)CC2=O)cc1 [Compound 22] | 5.2 µM |  |
| CC1=NN(c2ccc([N+](=O)[O-])cc2)C(=O)C1 [Compound 23] | 5.1 µM |  |
| CCC1=NN(c2ccccc2)C(=O)C1 [Compound 24, 3-Ethyl-1-phenyl-2-pyrazolin-5-one] | 15.1 µM |  |
| CCCC1=NN(c2ccccc2)C(=O)C1 [Compound 25, 1-Phenyl-3-propyl-2-pyrazolin-5-one] | 5.9 µM | minimal effective dose [2]: ≥ 10 mg/kg; Presence of electroencephalogram restoration [3]: + |
| O=C1CC(c2ccccc2)=NN1c1ccccc1 [Compound 26, 1,3-Diphenyl-2-pyrazolin-5-one] | 0.08 µM |  |
| Cc1ccc(N2N=C(c3ccccc3)CC2=O)cc1 [Compound 27] | 1.2 µM |  |
| COc1ccc(N2N=C(c3ccccc3)CC2=O)cc1 [Compound 28] | 3 µM |  |

| Compound | IC50 [1] | other results |
| --- | --- | --- |
| O=C1CC(c2ccccc2)=NN1c1ccc(Cl)cc1 [Compound 29] | 1.2 µM |  |
| CC1=NN(c2ccccc2)C(=O)C1C (stereo not shown) [Compound 30, 3,4-Dimethyl-1-phenyl-2-pyrazolin-5-one] | 20.6 µM | Presence of electroencephalogram restoration [3]: + |
| CC1=NN(c2ccccc2)C(=O)C1CC(C)C (stereo not shown) [Compound 31, 4-Isobutyl-3-methyl-1-phenyl-2-pyrazolin-5-one] | 5.7 µM | minimal effective dose [2]: ≥ 10 mg/kg; Presence of electroencephalogram restoration [3]: + |
| CC1=NN(c2ccccc2)C(=O)C1CCO (stereo not shown) [Compound 32, 4-(2-Hydroxyethyl)-3-methyl-1-phenyl-2-pyrazolin-5-one] |  | Inhibitory percentage at 500 μM [1]: 62.7% |
| CC1=NN(c2ccccc2)C(=O)C1Oc1ccccc1 (stereo not shown) [Compound 33] | 16.2 µM |  |
| CC1=NN(c2ccccc2)C(=O)C1Sc1ccccc1 (stereo not shown) [Compound 34] | 146 µM |  |
| O=C1C2CCCCC2=NN1c1ccccc1 (stereo not shown) [Compound 35, 3,3a,4,5,6,7-Hexahydro-2-phenyl-2H-indazol-3-one] | 16.4 µM | Presence of electroencephalogram restoration [3]: + |
| CCOC(=O)CC1=NN(c2ccccc2)C(=O)C1 [Compound 36, 3-(Ethoxycarbonylmethyl)-1-phenyl-2-pyrazolin-5-one] | 32.2 µM |  |
| CC1=NNC(=O)C1 [Compound 37, 3-Methyl-2-pyrazolin-5-one] |  | Inhibitory percentage at 500 μM [1]: 34.3% |
| CC1=NN(C)C(=O)C1 [Compound 38, 1,3-Dimethyl-2-pyrazolin-5-one] |  | Inhibitory percentage at 500 μM [1]: 45.5% |
| CC1=NN(CCO)C(=O)C1 [Compound 39, 1-(2-Hydroxyethyl)-3-methyl-2-pyrazolin-5-one] |  | Inhibitory percentage at 500 μM [1]: 39.2% |
| CC1=NN(C2CCCCC2)C(=O)C1 [Compound 40] | 24.8 µM | Presence of electroencephalogram restoration [3]: + |
| CC1=NN(Cc2ccccc2)C(=O)C1 [Compound 41] | 32.9 µM |  |
| CC1=NN(c2cccc3ccccc23)C(=O)C1 [Compound 42] | 4.9 µM |  |
| CN1N=C(c2ccccc2)CC1=O [Compound 43] | 27.2 µM |  |
| CC1=NN(c2ccccc2O)C(=O)C1 [Compound 44, 1-(2-hydroxyphenyl)-3-methyl-2-pyrazolin-5-one] | 35.5 µM |  |
| CC1=NN(c2cccc(O)c2)C(=O)C1 [Compound 45] | 21.2 µM |  |
| CC1=NN(c2ccc(O)cc2)C(=O)C1 [Compound 46] | 23.9 µM |  |
| CC1=NN(c2ccc(O)c(O)c2)C(=O)C1 [Compound 47] | 1.3 µM |  |
| O=C1CC(c2ccccc2)=NN1c1ccc(O)cc1 [Compound 48] | 2.7 µM |  |
| CC1=NN(c2ccc(CO)cc2)C(=O)C1 [Compound 49, 1-(4-hydroxymethylphenyl)-3-methyl-2-pyrazolin-5-one] | 51.8 µM |  |
| CC1=NN(c2ccc(N)cc2)C(=O)C1 [Compound 50, 1-(4-aminophenyl)-3-methyl-2-pyrazolin-5-one dihydrochloride] | 32.1 µM |  |
| O=C1CC=NN1c1ccccc1 [Compound 51, 1-Phenyl-2-pyrazolin-5-one] | 20.1 µM |  |
| CCC1(c2ccccc2)C(=O)NC(=O)NC1=O [PHB, phenobarbital sodium salt, reference compound] |  | persistence of sleep-like electroencephalogram after PHB ([2]; PHB 30 mg/kg intravenous): at least 3 hours |
| vitamin E |  | inhibition of lipid peroxidation by active oxygen [4]: can inhibit lipid peroxidation by active oxygen; also recorded: only unsatisfactory action |
